Experiment: xn = mol fraction of the nth substance listed
Settings: 101.3 kPa

CS(C)=O + CCOCC[n+]1ccn(CCC#N)c1.O=S(=O)([N-]S(=O)(=O)C(F)(F)F)C(F)(F)F
x2 = 0
Settings | electrical conductivity [S/m] | viscosity [mPa·s]
293.15 K | 0.0006 | 2.48
303.15 K | 0.0009 | 2.025
313.15 K | 0.0012 | 1.619
323.15 K | 0.0015 | 1.433

CS(C)=O + COCCOCCn1cc[n+](CCC#N)c1.O=S(=O)([N-]S(=O)(=O)C(F)(F)F)C(F)(F)F
x2 = 0
Settings | electrical conductivity [S/m] | viscosity [mPa·s]
293.15 K | 0.0006 | 2.479
303.15 K | 0.0009 | 2.025
313.15 K | 0.0012 | 1.619
323.15 K | 0.0015 | 1.433

CCOCC[n+]1ccn(CCC#N)c1.O=S(=O)([N-]S(=O)(=O)C(F)(F)F)C(F)(F)F + CS(C)=O
Settings | electrical conductivity, 293.15 K [S/m] | electrical conductivity, 303.15 K [S/m] | electrical conductivity, 313.15 K [S/m] | electrical conductivity, 323.15 K [S/m] | viscosity, 293.15 K [mPa·s] | viscosity, 303.15 K [mPa·s] | viscosity, 313.15 K [mPa·s] | viscosity, 323.15 K [mPa·s]
x1 = 0.0989 | 0.0011 | 0.0013 | 0.0016 | – | 8.21 | 5.53 | 4.312 | –
x1 = 0.1981 | 0.004 | 0.0048 | 0.0061 | – | 10.18 | 7.07 | 5.24 | –
x1 = 0.2776 | 0.0096 | 0.0117 | 0.0152 | 0.0204 | 16.76 | 11.64 | 8.48 | 6.42
x1 = 0.3971 | 0.0179 | 0.0218 | 0.0282 | – | 25.7 | 17 | 12.01 | –
x1 = 0.5029 | 0.0284 | 0.0351 | 0.0457 | – | 40.9 | 28 | 18.99 | –
x1 = 0.597 | – | 0.0477 | 0.063 | 0.0866 | – | 38.6 | 26.33 | 18.01
x1 = 0.721 | 0.0472 | – | 0.0763 | – | 72.2 | – | 28.66 | –
x1 = 0.798 | – | 0.0985 | 0.13 | 0.188 | – | 57.8 | 36.8 | 28.6
x1 = 0.89 | – | 0.0843 | 0.119 | 0.165 | – | 124.2 | 78.2 | 56.6
x1 = 1 | 0.057 | 0.0705 | 0.0957 | 0.14 | 401 | 235.6 | 146.2 | 105

COCCOCCn1cc[n+](CCC#N)c1.O=S(=O)([N-]S(=O)(=O)C(F)(F)F)C(F)(F)F + CS(C)=O
Settings | electrical conductivity, 293.15 K [S/m] | electrical conductivity, 303.15 K [S/m] | electrical conductivity, 313.15 K [S/m] | electrical conductivity, 323.15 K [S/m] | viscosity, 293.15 K [mPa·s] | viscosity, 303.15 K [mPa·s] | viscosity, 313.15 K [mPa·s] | viscosity, 323.15 K [mPa·s]
x1 = 0.0989 | 0.002 | 0.0023 | 0.0028 | 0.0034 | 6.1 | 4.244 | 3.145 | 2.453
x1 = 0.1981 | – | 0.0077 | 0.0094 | – | – | 5.65 | 4.14 | –
x1 = 0.2776 | 0.0093 | – | 0.0144 | 0.0193 | 13.52 | – | 6.42 | 5
x1 = 0.3971 | 0.0202 | 0.0243 | 0.031 | 0.043 | 19.5 | 13.05 | 8.55 | 6.4
x1 = 0.5029 | 0.0321 | – | 0.0518 | 0.0698 | 39.8 | – | 16.92 | 12.64
x1 = 0.597 | 0.0411 | 0.051 | 0.0672 | 0.0919 | 53.9 | 33.04 | 22.38 | 16.15
x1 = 0.721 | 0.0589 | 0.0732 | 0.0977 | 0.134 | 64.3 | 36.5 | 24.89 | 17.98
x1 = 0.798 | 0.0885 | 0.111 | – | – | 90.8 | 49.7 | – | –
x1 = 0.89 | 0.0746 | – | – | 0.175 | 145.2 | – | – | 37.5
x1 = 1 | 0.0654 | 0.0831 | 0.112 | 0.158 | 296 | 169 | 103.2 | 74.6

— a compilation of properties of binary mixtures (doi:10.1016/j.molliq.2020.114841)
